Like-named read-outs stand apart in the source and are kept apart here. Values belong to the molecule of their own block, whether it stands above or below them.
What was measured:
[1] = animals; cited from earlier work
[2] = biological target: T1, NaPi-IIb (Homo sapiens, UniProt O95436); details: duodenal and jejunal BBM; cited from earlier work
T1 sequence (O95436 1-690): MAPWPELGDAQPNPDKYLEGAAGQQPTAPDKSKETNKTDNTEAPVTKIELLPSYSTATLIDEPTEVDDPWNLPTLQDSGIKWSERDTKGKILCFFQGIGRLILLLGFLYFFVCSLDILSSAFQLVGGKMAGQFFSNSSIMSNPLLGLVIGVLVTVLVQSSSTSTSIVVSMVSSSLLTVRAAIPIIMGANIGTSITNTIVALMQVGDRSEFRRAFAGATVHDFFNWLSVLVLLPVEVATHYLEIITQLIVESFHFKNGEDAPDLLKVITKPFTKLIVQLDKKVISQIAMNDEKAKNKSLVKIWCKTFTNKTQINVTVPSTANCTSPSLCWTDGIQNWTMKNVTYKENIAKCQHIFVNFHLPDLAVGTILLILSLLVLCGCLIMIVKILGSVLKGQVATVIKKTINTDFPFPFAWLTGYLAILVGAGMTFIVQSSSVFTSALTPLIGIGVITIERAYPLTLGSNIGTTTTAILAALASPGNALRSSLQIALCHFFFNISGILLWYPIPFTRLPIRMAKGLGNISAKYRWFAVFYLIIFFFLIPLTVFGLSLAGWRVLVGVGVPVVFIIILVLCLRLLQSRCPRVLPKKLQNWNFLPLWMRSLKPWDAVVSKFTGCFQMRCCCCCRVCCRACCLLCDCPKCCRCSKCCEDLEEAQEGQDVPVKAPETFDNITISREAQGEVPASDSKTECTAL

[3] = Clinical study of serum phosphate levels in CKD patients on hemodialysis (FIG. 2-5); type: in vivo, human
Source text: A study has been undertaken wherein administration of a conventional phosphate binder as well as administration of nicotinamide has been compared with the administration of a combination of a phosphate binder and nicotinamide. For concrete numbers of the amount of patients tested as well as with regard to the phosphate binder and the dosing of phosphate binder and nicotinamide, further details can be taken from the following description, also with regard to the Figures.
These findings are derived from several clinical findings in which chronic renal insufficient patients underwent various medication regimes after an initial wash out phase over 4 weeks to eliminate and to control for pre-medication effects.

[4] = tested on: NaPi-IIb; details: intraperitoneal administration; cited from earlier work
[5] = human, CKD patients; cited from earlier work
[6] = tested on: NaPi-IIb receptor; assay: Expression of NaPi-IIb receptor in the small intestine over 5 weeks (FIG. 1); type: in vivo; details: nicotinamide 10 mg/kg body weight, conventional binder calcium carbonate 10 mg/kg, sevelamer 20 mg/kg body weight
[7] = intraperitoneal administration; cited from earlier work
[8] = biological target: T2, NaPi-IIa (Homo sapiens, UniProt Q06495); details: proximal renal tubule BBM (S1-S3); cited from earlier work
T2 sequence (Q06495 1-639): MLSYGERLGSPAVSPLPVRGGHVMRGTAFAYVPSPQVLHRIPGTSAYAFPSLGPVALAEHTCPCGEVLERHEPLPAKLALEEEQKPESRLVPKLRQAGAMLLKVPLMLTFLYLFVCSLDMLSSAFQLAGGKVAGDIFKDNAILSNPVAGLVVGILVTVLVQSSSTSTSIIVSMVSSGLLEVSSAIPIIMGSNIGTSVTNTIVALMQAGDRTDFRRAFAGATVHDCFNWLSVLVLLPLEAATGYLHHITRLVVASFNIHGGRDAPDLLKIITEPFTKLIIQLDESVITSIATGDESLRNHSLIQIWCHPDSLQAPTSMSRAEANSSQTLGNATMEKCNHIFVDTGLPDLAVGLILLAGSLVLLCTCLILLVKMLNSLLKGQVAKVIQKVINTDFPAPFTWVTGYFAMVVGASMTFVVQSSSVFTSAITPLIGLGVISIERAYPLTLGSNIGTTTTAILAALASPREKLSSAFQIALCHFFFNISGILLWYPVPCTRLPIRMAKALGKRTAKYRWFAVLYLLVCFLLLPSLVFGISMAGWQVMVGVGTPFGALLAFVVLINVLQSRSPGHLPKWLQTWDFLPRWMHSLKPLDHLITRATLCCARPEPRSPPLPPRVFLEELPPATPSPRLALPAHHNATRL

[9] = biological target: T3, NaPi-IIc (Homo sapiens, UniProt Q8N130); details: proximal renal tubule BBM (S1); cited from earlier work
T3 sequence (Q8N130 1-599): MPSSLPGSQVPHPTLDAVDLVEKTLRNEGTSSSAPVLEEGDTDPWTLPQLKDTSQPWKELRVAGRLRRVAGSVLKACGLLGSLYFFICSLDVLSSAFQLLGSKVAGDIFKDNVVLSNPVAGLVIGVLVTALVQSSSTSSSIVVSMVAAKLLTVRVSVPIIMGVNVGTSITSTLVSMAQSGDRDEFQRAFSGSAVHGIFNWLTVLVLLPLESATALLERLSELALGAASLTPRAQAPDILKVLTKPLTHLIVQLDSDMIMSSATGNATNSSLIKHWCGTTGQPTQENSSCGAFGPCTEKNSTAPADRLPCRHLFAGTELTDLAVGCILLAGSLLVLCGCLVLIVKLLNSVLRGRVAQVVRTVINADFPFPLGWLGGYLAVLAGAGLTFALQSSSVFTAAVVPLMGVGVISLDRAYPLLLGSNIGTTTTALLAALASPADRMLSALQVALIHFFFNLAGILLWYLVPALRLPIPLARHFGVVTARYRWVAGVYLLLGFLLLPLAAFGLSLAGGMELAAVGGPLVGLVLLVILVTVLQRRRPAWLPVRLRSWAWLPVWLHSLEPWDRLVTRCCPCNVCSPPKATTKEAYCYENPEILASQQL

expression of NaPi-IIb in the small intestine [6]: downregulates
Compound: NC(=O)c1cccnc1 [nicotinamide]
lowering elevated phosphate levels [1]: effective
Pharmacological regulators (direction of regulation) of NaPi-IIb [2]: Nicotinamide (↓)
reduction of serum phosphate ([3]; combination of nicotinamide and known phosphate lowering agents versus dose-equivalent nicotinamide alone or binders alone): more profound and superior reduction
patients achieving target levels <1.78 mmol/l ([3]; nicotinamide 250 to 1000 mg once daily as add on to previous conventional phosphate binder therapy, 9 weeks, n=126 ITT): 69%
patients with phosphate levels <1.78 mmol/l ([3]; nicotinamide alone, 250 to 1000 mg oral once daily, 9 weeks, n=126 ITT): 45%
expression of NaPi-IIb [4]: blocks
lowering elevated phosphate levels [5]: effective
gastrointestinal absorption of phosphate [7]: inhibits

Compound: O=C(O)P(=O)(O)O [PFA, Phosphonoformic acid]
Pharmacological regulators (direction of regulation) of NaPi-IIb [2]: PFA (↓)
Pharmacological regulators (direction of regulation) of NaPi-IIa [8]: PFA (↓)
Pharmacological regulators (direction of regulation) of NaPi-IIc [9]: PFA (↓)

— patent US20190381024A1, “NICOTINAMIDE FOR LOWERING PHOSPHATE LEVELS IN HYPERPHOSPHATEMIA” (MEDICE Arzneimittel Putter GmbH & Co. KG, priority 2015, published 2019)
